{
  "source": "paper PMC10363480",
  "about": "(Plant Communications, 2023)",
  "type_in_all_cases": "cell-based",
  "key": {"[1]": {"system": "mitochondria or chloroplast of Chlamydomonas reinhardtii", "assay": "Subcellular localization of Venus reporter by epifluorescence microscopy (manual targeting assignment)", "conditions": "for mitochondrial targeting upon addition of mTP-C (P^m): C-terminal element of CAG2-mTP added to the named peptide, Figure 2 rows C and D; for mitochondrial localization upon addition of cTP-C (P^c): C-terminal element of RCA1-cTP added; for organelle targeting (Venus reporter localization) by the construct as labelled: peptide inserted upstream of Venus, stable Chlamydomonas lines, epifluorescence, MitoTracker / chlorophyll / pyrenoid co-localization, three independent insertion lines; for Localisation: peptide-Venus reporter construct expressed in Chlamydomonas reinhardtii, manual targeting assignment (Neither / Mitochondria / Chloroplast / Dual; partial = partial targeting)", "in_short": "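Targeting peptide variants fused to Venus reporter, transformed into Chlamydomonas wild-type T222+ (CC-5101); three independent transformant lines per construct. Localization assigned manually from epifluorescence images using chlorophyll autofluorescence for chloroplast and 0.1 μM MitoTracker Red CMXRos (30 min) for mitochondria. Automated segmentation used for validation.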"}, "[2]": {"system": "mitochondria or chloroplast of Chlamydomonas reinhardtii", "assay": "Automated image segmentation / quantification of Venus signal (pyrenoid/chlorophyll, mitochondria/cell)", "conditions": "for automated image quantification values: unmodified HA-RAMPs, Supplemental Figures 2E, 2F, 5A, 9A", "description": "A custom ImageJ Macro was written to enable automated image segmentation of epifluorescence micrographs in Fiji. In brief, in a given micrograph, fluorescence intensities were normalized, and individual cells were detected using marker-controlled watershed from the MorphoLibJ library ([Legland et al., 2016]). For each cell, auto-thresholding the chlorophyll channel using the Huang method was used to generate a chlorophyll mask. Separately, the chlorophyll channel was subjected to a series of morphological filters and Gaussian blurring followed by auto-thresholding to finally detect round holes between 0.1 and 5 μm within the ensuing binary image to be saved as a pyrenoid mask. In MitoTracker images, the MitoTracker channel was subjected to morphological filtering followed by auto-thresholding with Otsu to generate a mitochondrial mask. Venus channel intensities were recorded for each compartment. For each cell, rotated images containing binary masks as extra channels were saved. Data were compiled, analyzed, and plotted in R v.3.6.1 (https://www.r-project.org/) using RStudio 2022.07.2+576 (https://www.rstudio.com/).\nAutomated Image Analysis corroborates targeting\nTo assess subcellular Venus localisation independently of our manual targeting assignment, 2202 3-channel images containing Venus, chlorophyll and brightfield channels, and 557 4-channel images containing an additional MitoTracker channel, were subjected to automated, quantitative […]\nimage analysis (Fig. S2).\nIn the absence of Venus, low chlorophyll autofluorescence is visible in the Venus channel; in the absence of a presequence, Venus accumulates in the cytoplasm, targeting neither to the mitochondria nor to the chloroplast. When equipped with the chimeric B15Kc presequence, Venus […]\npreviously using confocal microscopy and biochemistry on isolated organelles (Garrido et al., When targeted to the chloroplast, Venus not only colocalizes with chlorophyll but also accumulates within the pyrenoid. The pyrenoid can be detected as a region of lower chlorophyll fluorescence at the base of the cup-shaped chloroplast, as visualized in Fig. S2B where the pyrenoid is labelled fluorescently using an RBCS-Venus fusion protein. Given that chlorophyll autofluorescence renders colocalization of Venus channel signal with the chlorophyll channel potentially misleading in constructs with low Venus accumulation, we chose to focus on evaluating Venus signal within the pyrenoid for automated image segmentation (Fig. S2C inset). Rather than comparing pyrenoidal Venus to the entire cell, we opted for a comparison with Venus in the rest of the chloroplast excluding the pyrenoid (the chlorophyll region), since strong Venus channel signal from within the pyrenoid should generate high values for a pyrenoid/chlorophyll ratio when Venus is in the chloroplast and low values when Venus is elsewhere. This approach was able to separate chloroplast-targeting constructs very effectively from constructs where Venus localized elsewhere in the cell (Fig. S2C). Only a small region of overlap between the two categories remains (highlighted in blue). Among constructs targeting elsewhere, constructs found in this overlap region typically show low Venus accumulation, e.g. the no-Venus control falls also falls in this region (black diamond). […]"}, "[3]": {"system": "Escherichia coli strain BW25113", "assay": "Minimum inhibitory concentration / antimicrobial activity growth assay", "conditions": "growth assay with dilutions of the AMP, Escherichia coli strain BW25113, Figure 3D"}, "[4]": {"conditions": "Figure 2, bare name = K and R versions"}},
  "note": "Where “and” joins values, the source holds several entries; their conditions need not be identical. Identical values can stand only once. Entries after “also recorded” stand apart in the source; their conditions may differ.",
  "data": [
    {"substance": "ALWMTLLKKVLKAAAKAALNAVLVGANA [DS4, dermaseptin S4, HA-RAMP antimicrobial peptide]", "values": [
      {"measurement": "chloroplast targeting when combining cTP-N with cTP-C (^cP^c)", "setting": "[1]; [4]", "result": "failed to show any chloroplast targeting; also recorded: fail to target the chloroplast"},
      {"measurement": "Targeting", "setting": "[1]; manual assignment printed per cell line of Table S3, Fig.S 7 panel a, Nter sans, Cation K, Cter sans, pODC 82, colony 16, strain 2", "result": "none"},
      {"measurement": "Venus.ratio_pyr", "setting": "[2]; Venus channel signal in the pyrenoid relative to the chlorophyll region, single-cell values, image 1, 3 channels, Cation K, no TP elements, strain 2", "result": "0.9978 and 0.9365"},
      {"measurement": "Venus.ratio_pyr.norm", "setting": "[2]; normalized so that construct averages range from 0 to 1, single-cell values, image 1, 3 channels, Cation K, no TP elements, strain 2", "result": 0.09363},
      {"measurement": "Venus.ratio_cp", "setting": "[2]; single-cell values (Cell 0, 1, 10, 11, 12), image 1, 3 channels, Nter sans, Cation K, Cter sans, strain 2", "result": "1.038 and 1.1 and 1.124 and 1.055 and 1.047"},
      {"measurement": "minimum inhibitory concentration after replacing all Ks with Rs, compared with the natively K-rich sequence", "setting": "[3]", "result": "increased"}
    ]},
    {"substance": "FLPLLAGLAANFLPKIFCKITRKC [B1E, brevinin-1E, HA-RAMP antimicrobial peptide, reference compound]", "values": [
      {"measurement": "mitochondrial targeting upon sole addition of cTP-N (^cP)", "setting": "[1]; 15 N-terminal residues of RCA1-cTP added, no C-terminal element, Figure 2", "result": "enabled mitochondrial targeting"},
      {"measurement": "targeting when combining cTP-N with mTP-C (^cP^m)", "setting": "[1]; [4]", "result": "dual targeting"},
      {"measurement": "minimum inhibitory concentration after replacing all Ks with Rs, compared with the natively K-rich sequence", "setting": "[3]", "result": "increased"}
    ]},
    {"substance": "GIGKFLHSAKKFGKAFVGEIMNS [MII, magainin 2, HA-RAMP antimicrobial peptide, reference compound]", "values": [
      {"measurement": "mitochondrial targeting upon addition of mTP-C (P^m)", "setting": "[1]; bare name = K and R versions", "result": "continued targeting"},
      {"measurement": "mitochondrial localization upon addition of cTP-C (P^c)", "setting": "[1]; Figure 2 rows E and F", "result": "compatible with mitochondrial localization"},
      {"measurement": "organelle targeting (Venus reporter localization) by the construct as labelled", "setting": "[1]", "result": "only partial"},
      {"measurement": "minimum inhibitory concentration after replacing all Ks with Rs, compared with the natively K-rich sequence", "setting": "[3]", "result": "increased"}
    ]},
    {"substance": "MVNYGNGVSCSRTRCSVNWGIITHQAFRVTSGVASGLTQTAESFRGVSSQFFDAPNGPSVKQVLIEDEW [B15.R.m]", "values": [
      {"measurement": "Localisation", "setting": "[1]", "result": "Neither"}
    ]},
    {"substance": "MVNYGNGVSCSRTRCSVNWGIITHQAFRVTSGVASGSVRRAQLQVVASSRKQMGRWRSIDAGVDASDDQ [B15.R.c]", "values": [
      {"measurement": "Localisation", "setting": "[1]", "result": "Chloroplast"}
    ]},
    {"substance": "MWLSKTAKKLENSAKKRISEGIAIAIKGGSR [CP3.K]", "values": [
      {"measurement": "Localisation", "setting": "[1]", "result": "Neither"}
    ]},
    {"substance": "MWLSKTAKKLENSAKKRISEGIAIAIKGGSRLTQTAESFRGVSSQFFDAPNGPSVKQVLIEDEW [CP3.K.m]", "values": [
      {"measurement": "Localisation", "setting": "[1]", "result": "Neither"}
    ]},
    {"substance": "MWLSKTAKKLENSAKKRISEGIAIAIKGGSRSVRRAQLQVVASSRKQMGRWRSIDAGVDASDDQ [CP3.K.c]", "values": [
      {"measurement": "Localisation", "setting": "[1]", "result": "Neither"}
    ]},
    {"substance": "MWLSRTARRLENSARRRISEGIAIAIRGGSR [CP3.R]", "values": [
      {"measurement": "Localisation", "setting": "[1]", "result": "Mitochondria (partial)"}
    ]},
    {"substance": "MWLSRTARRLENSARRRISEGIAIAIRGGSRLTQTAESFRGVSSQFFDAPNGPSVKQVLIEDEW [CP3.R.m]", "values": [
      {"measurement": "Localisation", "setting": "[1]", "result": "Mitochondria"}
    ]},
    {"substance": "MWLSRTARRLENSARRRISEGIAIAIRGGSRSVRRAQLQVVASSRKQMGRWRSIDAGVDASDDQ [CP3.R.c]", "values": [
      {"measurement": "Localisation", "setting": "[1]", "result": "Chloroplast"}
    ]},
    {"substance": "SFLTTFKDLAIKAAKSAGQSVLSTLSCKLSNTC [B2I, brevinin-2ISb, HA-RAMP antimicrobial peptide, reference compound]", "values": [
      {"measurement": "mitochondrial targeting upon addition of mTP-C (P^m)", "setting": "[1]; bare name = K and R versions", "result": "continued targeting"},
      {"measurement": "mitochondrial localization upon addition of cTP-C (P^c)", "setting": "[1]; Figure 2 rows E and F", "result": "compatible with mitochondrial localization"},
      {"measurement": "organelle targeting (Venus reporter localization) by the construct as labelled", "setting": "[1]", "result": "mitochondrial localization"}
    ]},
    {"substance": "VNYGNGVSCSKTKCSVNWGIITHQAFRVTSGVASG [B15, bacillocin 1580, HA-RAMP antimicrobial peptide, reference compound]", "values": [
      {"measurement": "chloroplast targeting upon addition of cTP-C (P^c)", "setting": "[1]; C-terminal element of RCA1-cTP added to the named peptide, Figure 2 rows E and F, bare name = K and R versions", "result": "enabled chloroplast targeting"},
      {"measurement": "targeting when combining cTP-N with mTP-C (^cP^m)", "setting": "[1]; [4]", "result": "chloroplast targeting"}
    ]},
    {"substance": "cecropin-P3 [CP3K, reference compound]", "values": [
      {"measurement": "chloroplast targeting when combining cTP-N with cTP-C (^cP^c)", "setting": "[1]; [4]", "result": "fail to target the chloroplast"},
      {"measurement": "targeting when combining cTP-N with mTP-C (^cP^m)", "setting": "[1]; [4]", "result": "chloroplast targeting"},
      {"measurement": "automated image quantification values", "setting": "[2]", "result": "high image quantification values"}
    ]},
    {"substance": "ranatuerin-2G [R2GK, reference compound]", "values": [
      {"measurement": "mitochondrial targeting upon addition of mTP-C (P^m)", "setting": "[1]; bare name = K and R versions", "result": "enabled partial mitochondrial targeting"},
      {"measurement": "chloroplast targeting when combining cTP-N with cTP-C (^cP^c)", "setting": "[1]; [4]", "result": "fail to target the chloroplast"},
      {"measurement": "automated image quantification values", "setting": "[2]", "result": "high image quantification values"}
    ]}
  ]
}
